Reference: publication PMC4836378 (Journal of medicinal chemistry, 2016)
Read-outs that look alike come from different tables or passages of the source. Blank lines part the entries; values can stand above or below the molecule they belong to.

Columns and labels:
[1] = molecular target: T1, CYP26A1 (Homo sapiens, UniProt O43174); assay: CYP26A1 inhibition assay; conditions: for Selectivity towards CYP26A1 compared to CYP26B1 (ratio of IC50): CYP26B1 IC50 versus CYP26A1 IC50
T1 sequence (O43174 1-497): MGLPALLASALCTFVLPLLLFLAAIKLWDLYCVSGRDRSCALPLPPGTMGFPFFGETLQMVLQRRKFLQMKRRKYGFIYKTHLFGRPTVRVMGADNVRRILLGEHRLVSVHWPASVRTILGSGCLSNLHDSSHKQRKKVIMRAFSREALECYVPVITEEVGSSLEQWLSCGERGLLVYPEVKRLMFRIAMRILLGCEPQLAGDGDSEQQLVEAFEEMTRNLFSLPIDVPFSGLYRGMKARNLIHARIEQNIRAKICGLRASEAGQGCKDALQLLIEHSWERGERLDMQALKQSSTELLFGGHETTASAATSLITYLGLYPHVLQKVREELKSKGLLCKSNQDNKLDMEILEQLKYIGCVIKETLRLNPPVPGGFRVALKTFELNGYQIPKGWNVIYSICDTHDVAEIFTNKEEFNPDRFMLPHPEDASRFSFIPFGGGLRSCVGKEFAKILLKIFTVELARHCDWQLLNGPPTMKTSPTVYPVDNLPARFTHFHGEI

[2] = test system: atRA metabolism in HepG2 cells; conditions: HepG2, 24 hour treatment
[3] = molecular target: T2, human RARα (Homo sapiens, UniProt P10276); assay: Luciferase-based RARα reporter assay; assay type: cell-based; conditions: 1 μM compound, data not shown
T2 sequence (P10276 1-462): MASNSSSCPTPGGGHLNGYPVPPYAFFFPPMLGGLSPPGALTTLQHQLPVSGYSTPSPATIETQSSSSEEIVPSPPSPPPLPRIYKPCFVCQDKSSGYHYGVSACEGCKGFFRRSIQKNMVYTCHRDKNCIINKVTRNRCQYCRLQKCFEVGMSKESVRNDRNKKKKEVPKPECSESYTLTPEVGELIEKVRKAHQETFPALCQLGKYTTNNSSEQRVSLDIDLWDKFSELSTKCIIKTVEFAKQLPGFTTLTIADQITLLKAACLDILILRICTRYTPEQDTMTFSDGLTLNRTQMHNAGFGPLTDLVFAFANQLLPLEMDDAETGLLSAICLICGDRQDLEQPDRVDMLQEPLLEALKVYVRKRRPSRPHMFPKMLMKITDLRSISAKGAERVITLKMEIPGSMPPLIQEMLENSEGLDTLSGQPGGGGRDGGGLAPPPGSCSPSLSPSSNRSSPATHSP

[4] = molecular target: T3, human RARγ (Homo sapiens, UniProt P13631); assay: Luciferase-based RARγ reporter assay; assay type: cell-based; conditions: 1 μM compound, data not shown
T3 sequence (P13631 1-454): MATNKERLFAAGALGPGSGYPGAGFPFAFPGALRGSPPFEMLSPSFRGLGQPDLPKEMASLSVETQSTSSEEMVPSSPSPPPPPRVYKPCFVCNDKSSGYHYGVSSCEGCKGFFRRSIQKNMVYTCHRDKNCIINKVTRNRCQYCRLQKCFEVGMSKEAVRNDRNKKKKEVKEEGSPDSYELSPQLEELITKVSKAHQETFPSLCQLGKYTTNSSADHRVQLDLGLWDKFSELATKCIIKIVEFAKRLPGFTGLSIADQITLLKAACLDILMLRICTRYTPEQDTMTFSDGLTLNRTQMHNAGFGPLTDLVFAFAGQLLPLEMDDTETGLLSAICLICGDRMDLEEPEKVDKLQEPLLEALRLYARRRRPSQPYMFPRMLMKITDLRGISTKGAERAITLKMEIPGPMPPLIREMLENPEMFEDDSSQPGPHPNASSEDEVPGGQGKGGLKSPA

[5] = test system: RARs in HepG2 cells; assay: Induction of RARβ and CYP26A1 mRNA in HepG2 cells; assay type: cell-based, human; conditions: for RAR antagonistic activity: 100 nM atRA + 1 μM compound; for Magnitude of induction of RARβ and CYP26A1 mRNA compared to atRA treatment alone: 100 nM atRA in combination with 1 μM compound; for Activation of RARs (induction of CYP26A1 and RARβ mRNA): 1 μM compound alone, 24 hours, versus vehicle and atRA
[6] = molecular target: CYP3A4 (Homo sapiens, UniProt P08684); assay: CYP3A4 inhibition in human liver microsomes; assay type: in vitro ADME; conditions: midazolam; for Percent inhibition of CYP3A4: 10 μM inhibitor, 10 µM
Chain of CYP3A4 (P08684 whole entry): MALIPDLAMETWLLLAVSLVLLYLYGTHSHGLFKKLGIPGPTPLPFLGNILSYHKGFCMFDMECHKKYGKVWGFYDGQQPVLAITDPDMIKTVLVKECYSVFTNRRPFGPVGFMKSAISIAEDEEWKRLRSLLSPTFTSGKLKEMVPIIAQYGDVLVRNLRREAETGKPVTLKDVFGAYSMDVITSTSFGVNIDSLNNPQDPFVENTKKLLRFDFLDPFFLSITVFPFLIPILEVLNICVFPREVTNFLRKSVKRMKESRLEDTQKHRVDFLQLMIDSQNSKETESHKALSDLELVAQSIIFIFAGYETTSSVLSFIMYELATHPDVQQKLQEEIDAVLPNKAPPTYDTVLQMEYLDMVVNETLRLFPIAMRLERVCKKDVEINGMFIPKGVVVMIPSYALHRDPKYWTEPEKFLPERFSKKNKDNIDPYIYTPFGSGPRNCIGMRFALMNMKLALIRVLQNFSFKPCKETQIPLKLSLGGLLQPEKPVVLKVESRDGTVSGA

[7] = molecular target: CYP2D6 (Homo sapiens, UniProt P10635); assay: CYP2D6 inhibition in human liver microsomes; assay type: in vitro ADME
Chain of CYP2D6 (P10635 whole entry): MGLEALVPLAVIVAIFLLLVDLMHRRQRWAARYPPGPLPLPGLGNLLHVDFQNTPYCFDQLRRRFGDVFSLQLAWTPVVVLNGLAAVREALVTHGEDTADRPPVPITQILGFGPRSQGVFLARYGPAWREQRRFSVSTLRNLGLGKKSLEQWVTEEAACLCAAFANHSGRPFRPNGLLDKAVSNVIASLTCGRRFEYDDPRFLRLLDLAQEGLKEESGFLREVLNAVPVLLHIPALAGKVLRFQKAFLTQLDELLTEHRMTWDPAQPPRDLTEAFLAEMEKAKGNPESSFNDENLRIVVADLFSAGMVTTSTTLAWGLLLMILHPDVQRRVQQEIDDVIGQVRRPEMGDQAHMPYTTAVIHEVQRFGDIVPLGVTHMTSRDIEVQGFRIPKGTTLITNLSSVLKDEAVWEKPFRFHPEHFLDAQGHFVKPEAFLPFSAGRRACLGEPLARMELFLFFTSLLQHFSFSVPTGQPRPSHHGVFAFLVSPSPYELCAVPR

[8] = molecular target: T4, CYP26B1 (Homo sapiens, UniProt Q9NR63); assay: CYP26B1 inhibition assay
T4 sequence (Q9NR63 1-512): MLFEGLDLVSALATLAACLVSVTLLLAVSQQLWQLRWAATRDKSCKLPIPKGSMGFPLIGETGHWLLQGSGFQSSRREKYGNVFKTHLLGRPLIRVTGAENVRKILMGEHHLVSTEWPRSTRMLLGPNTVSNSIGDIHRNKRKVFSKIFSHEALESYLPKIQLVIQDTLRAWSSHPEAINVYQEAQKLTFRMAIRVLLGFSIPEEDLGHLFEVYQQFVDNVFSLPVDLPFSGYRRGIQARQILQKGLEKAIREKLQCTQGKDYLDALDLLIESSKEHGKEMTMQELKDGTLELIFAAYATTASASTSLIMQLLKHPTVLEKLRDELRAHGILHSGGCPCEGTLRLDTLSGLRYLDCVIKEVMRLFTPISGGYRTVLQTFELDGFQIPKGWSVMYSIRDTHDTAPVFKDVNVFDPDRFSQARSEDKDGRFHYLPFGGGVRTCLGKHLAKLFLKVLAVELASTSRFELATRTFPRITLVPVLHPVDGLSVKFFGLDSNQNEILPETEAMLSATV

[9] = molecular target: CYP2C19 (Homo sapiens, UniProt P33261); assay: CYP2C19 inhibition in human liver microsomes; assay type: in vitro ADME; conditions: 10 μM inhibitor, (S)-mephenytoin
Chain of CYP2C19 (P33261 whole entry): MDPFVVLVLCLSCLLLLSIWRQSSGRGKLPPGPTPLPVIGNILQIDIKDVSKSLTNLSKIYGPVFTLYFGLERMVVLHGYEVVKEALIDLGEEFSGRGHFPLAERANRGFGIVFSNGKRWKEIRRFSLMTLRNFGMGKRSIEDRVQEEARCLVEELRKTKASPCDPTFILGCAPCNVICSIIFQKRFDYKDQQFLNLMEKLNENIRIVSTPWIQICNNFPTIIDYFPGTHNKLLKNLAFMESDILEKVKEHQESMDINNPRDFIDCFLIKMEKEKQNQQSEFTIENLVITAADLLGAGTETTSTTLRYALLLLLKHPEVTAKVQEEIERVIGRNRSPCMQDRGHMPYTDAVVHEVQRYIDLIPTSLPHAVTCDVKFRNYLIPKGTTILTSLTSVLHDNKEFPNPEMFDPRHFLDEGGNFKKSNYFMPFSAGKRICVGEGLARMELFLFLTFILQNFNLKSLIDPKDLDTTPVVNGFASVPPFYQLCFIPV

[10] = molecular target: T5, CYP2B6 (Homo sapiens, UniProt P20813); assay: CYP2B6 inhibition in human liver microsomes; assay type: in vitro ADME; conditions: 10 μM inhibitor, bupropion
T5 sequence (P20813 1-491): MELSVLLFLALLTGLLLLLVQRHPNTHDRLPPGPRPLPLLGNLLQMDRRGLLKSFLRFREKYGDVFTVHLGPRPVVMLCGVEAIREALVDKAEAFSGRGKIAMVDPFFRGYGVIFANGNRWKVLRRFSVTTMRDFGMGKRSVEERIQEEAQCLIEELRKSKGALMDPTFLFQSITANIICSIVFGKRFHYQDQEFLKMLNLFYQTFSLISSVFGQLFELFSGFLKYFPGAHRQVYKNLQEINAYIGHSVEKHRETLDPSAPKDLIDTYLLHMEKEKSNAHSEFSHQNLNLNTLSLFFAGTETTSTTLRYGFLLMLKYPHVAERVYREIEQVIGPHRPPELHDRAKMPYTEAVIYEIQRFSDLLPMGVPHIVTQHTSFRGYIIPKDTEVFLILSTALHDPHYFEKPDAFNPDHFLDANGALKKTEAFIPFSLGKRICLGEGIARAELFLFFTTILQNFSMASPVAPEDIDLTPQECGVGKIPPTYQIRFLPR

[11] = substrate: CC1=C(/C=C/C(C)=C\C=C\C(C)=C\C(=O)O)C(C)(C)CCC1; assay: cells, lysate or membranes named; conditions: other: recombinant CYP26B1, 50-1000 nM 9-cis-RA; pH 7.4; 37.0 °C

Selectivity towards CYP26A1 compared to CYP26B1 (ratio of IC50) [1]: 10–20 fold
Molecule: CC1(C)CCC(C)(C)c2cc(C3(c4ccc5cc(C(=O)O)ccc5c4)SCCS3)ccc21 [Compound 15b, 6-(2-(5,5,8,8-Tetramethyl-5,6,7,8-tetrahydronaphthalen-2-yl)-1,3-dithiolan-2-yl)-2-naphthoic acid]

Molecule: CC1=C(/C=C/C(C)=C/C=C/C(C)=C/C(=O)O)C(C)(C)CCC1 [atRA, all-trans-retinoic acid]
atRA in cell media ([2]; 100nM atRA alone): 13.2 ± 0.14 nM
atRA in cell media ([2]; 1μM atRA alone): 214 ± 13.6 nM

Percent inhibition of CYP3A4 [6]: free of any CYP3A4 inhibition
inhibition at 10 µM ([7]; human, probe dextromethorphan): 50%
Molecule: CC1(C)CCC(C)(C)c2cc(C3(c4ccc(/C=C/C(=O)O)cc4)OCCO3)ccc21 [Compound 22, (E)-3-(4-(2-(5,5,8,8-Tetramethyl-5,6,7,8-tetrahydronaphthalen-2-yl)-1,3-dioxolan-2-yl)phenyl)-acrylic acid]
RARα activation [3]: No measurable RARα and RARγ activation was detected
RARγ activation [4]: No measurable RARα and RARγ activation was detected
RAR antagonistic activity [5]: do not exhibit an RAR antagonistic activity
Magnitude of induction of RARβ and CYP26A1 mRNA compared to atRA treatment alone [5]: significantly increased
Activation of RARs (induction of CYP26A1 and RARβ mRNA) [5]: none of the three compounds resulted in activation

Selectivity towards CYP26A1 compared to CYP26B1 (ratio of IC50) [1]: 10–20 fold
Molecule: CC1(C)CCC(C)(C)c2cc(C3(c4ccc5cc(C(=O)O)ccc5c4)OCCO3)ccc21 [Compound 13b, 6-(2-(5,5,8,8-Tetramethyl-5,6,7,8-tetrahydronaphthalen-2-yl)-1,3-dioxolan-2-yl)-2-naphthoic acid]

Ki [1]: 5.1 nM
Ki [8]: 0.46 nM
Molecule: CCC(CC)C(c1ccc(Nc2nc3ccccc3s2)cc1)n1cncn1 (stereo not shown) [Compound 3, talarozole]

Percent inhibition of CYP3A4 [6]: free of any CYP3A4 inhibition
IC50 for CYP3A4 inhibition [6]: no concentration dependent inhibition
Percent inhibition of CYP2D6 ([7]; 10 μM inhibitor, dextromethorphan, 10 µM): free of any significant inhibition
Percent inhibition of CYP2C19 [9]: free of any significant inhibition
Percent inhibition of CYP2B6 [10]: free of any significant inhibition
Molecule: CC1(C)CCC(C)(C)c2cc(C3(c4ccc(CCC(=O)O)cc4)OCCO3)ccc21 [Compound 24, 3-{4-[2-(5,5,8,8-Tetramethyl-5,6,7,8-tetrahydronaphthalen-2-yl)-1,3-dioxolan-2-yl]phenyl}4 propanoic acid]
RARα activation [3]: No measurable RARα and RARγ activation was detected
RARγ activation [4]: No measurable RARα and RARγ activation was detected
RAR antagonistic activity [5]: do not exhibit an RAR antagonistic activity
Magnitude of induction of RARβ and CYP26A1 mRNA compared to atRA treatment alone [5]: significantly increased
Activation of RARs (induction of CYP26A1 and RARβ mRNA) [5]: none of the three compounds resulted in activation

B1: CYP26B1 (Homo sapiens) (protein)
chain: MLFEGLDLVSALATLAACLVSVTLLLAVSQQLWQLRWAATRDKSCKLPIPKGSMGFPLIGETGHWLLQGSGFQSSRREKYGNVFKTHLLGRPLIRVTGAENVRKILMGEHHLVSTEWPRSTRMLLGPNTVSNSIGDIHRNKRKVFSKIFSHEALESYLPKIQLVIQDTLRAWSSHPEAINVYQEAQKLTFRMAIRVLLGFSIPEEDLGHLFEVYQQFVDNVFSLPVDLPFSGYRRGIQARQILQKGLEKAIREKLQCTQGKDYLDALDLLIESSKEHGKEMTMQELKDGTLELIFAAYATTASASTSLIMQLLKHPTVLEKLRDELRAHGILHSGGCPCEGTLRLDTLSGLRYLDCVIKEVMRLFTPISGGYRTVLQTFELDGFQIPKGWSVMYSIRDTHDTAPVFKDVNVFDPDRFSQARSEDKDGRFHYLPFGGGVRTCLGKHLAKLFLKVLAVELASTSRFELATRTFPRITLVPVLHPVDGLSVKFFGLDSNQNEILPETEAMLSATV
Km [11]: 0.555 µM
kcat [11]: 3.6 pmol/min/pmol P450
